Assay results: patent US11066447B2, “Aureobasidium derivatives and methods of synthesis” (AureoGen Biosciences, Inc., priority 2016, dated 2021)
Values after ≈ are worked out from the molar mass of the structure shown. Read-outs that look alike come from different tables or passages of the source. Numbered stars: 1 amine (or outer) side, 2 acyl side, 3 side chain; on linkers, the order of the positions; unused ones are H or OH. Square brackets hold non-standard residues; d marks the D form. Peptide text beside a SMILES is read from it. X19 = CN([C@@H](Cc1cccc(-c2ccc(OCc3ccccc3)cc2)c1)C(=O)[*:2])[*:1]; X2 = CN1CCN(c2ccc(-c3cccc(C[C@@H](C(=O)[*:2])N(C)[*:1])c3)cc2)CC1; X23 = CN([C@@H](Cc1cccc(-c2cccc3c2cnn3C)c1)C(=O)[*:2])[*:1]; Hmp(2R,3S) = CC[C@H](C)[C@@H](O)C(=O)O; NMeVal(β-OH) = CN[C@H](C(=O)O)C(C)(C)O; NMeV = CN[C@H](C(=O)O)C(C)C

Legend:
[1] = system: C. albicans MMX 2000 ATCC 10231; assay: MIC assay (CLSI microdilution); format: cell-based; conditions: Candida albicans
[2] = system: C. parapsilosis MMX 2323 ATCC 22019; assay: MIC assay (CLSI microdilution); format: cell-based, Candida parapsilosis
In short: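 Broth microdilution MIC testing of Candida parapsilosis ATCC 22019 followed CLSI methods in RPMI-1640, with or without 0.002% Tween-80. Yeast grown 48 hours at 35° C on Sabouraud dextrose agar was suspended to a 0.5 McFarland standard and diluted 1:100 to roughly 0.5-2.5×10^3 CFU/mL. The MIC was the lowest concentration preventing visible growth.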

[3] = system: A. fumigatus MMX 5280 ATCC MYA-3626; assay: MIC/MEC assay (CLSI microdilution); format: cell-based, Aspergillus fumigatus
In short: (§1)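 Aspergillus spore suspensions, diluted from counted stocks to a final approximately 0.2-2.5×10^4 CFU/mL, were inoculated into RPMI-1640 containing 0.002% Tween-80 holding two-fold drug dilutions. Compounds came from 95% ethanol, amphotericin B (0.06-64 μg/mL) from DMSO. MMX 5280 was also tested without Tween-80.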

A. flavus MMX 5948 = assay: MIC/MEC assay (CLSI microdilution); format: cell-based; conditions: Aspergillus flavus
In short: as §1

[4] = system: A. niger MMX 0624 ATCC 16888; assay: MIC/MEC assay (CLSI microdilution); format: cell-based
In short: as §1

[5] = system: A. fumigatus MMX 6782 ATCC 13073; assay: MIC/MEC assay (CLSI microdilution); format: cell-based; conditions: Aspergillus fumigatus
In short: as §1

[6] = system: A. fumigatus MMX 6781 ATCC MYA-4609; assay: MIC/MEC assay (CLSI microdilution); format: cell-based; conditions: Aspergillus fumigatus
In short: as §1

[7] = system: A. fumigatus from Aureogen; assay: MIC/MEC assay (CLSI microdilution); format: cell-based; conditions: Aspergillus fumigatus
In short: as §1

A. fumigatus MMX 5944 = assay: MIC/MEC assay (CLSI microdilution); format: cell-based
In short: as §1

[8] = system: C. neoformans MMX 0634 ATCC 90112; assay: MIC assay (CLSI microdilution); format: cell-based; conditions: Cryptococcus neoformans, read-out: MIC
[9] = system: C. albicans MMX 2000 ATCC 10231; assay: MIC assay (CLSI microdilution); format: cell-based; conditions: Candida albicans, ATCC10231, RPMI plus 0.002% Tween-80; read-out: MIC
[10] = MMX5948, 48 h, RPMI plus 0.002% Tween-80
[11] = RPMI plus 0.002% Tween-80, 48 hr
[12] = ATCC22019, RPMI plus 0.002% Tween-80, read-out: MIC
[13] = ATCC22019, Without Tween-80, read-out: MIC
[14] = Aspergillus fumigatus, 48 h, RPMI plus 0.002% Tween-80, read-out: MEC
[15] = Aspergillus fumigatus, 48 h, Without Tween-80, read-out: MEC
[16] = RPMI plus 0.002% Tween-80, 48 hr, read-out: MIC
[17] = ATCC90112, RPMI plus 0.002% Tween-80
[18] = 48 h, RPMI plus 0.002% Tween-80, read-out: MIC

Structure (SMILES): CC[C@H](C)[C@@H]1NC(=O)[C@@H]2CCCN2C(=O)[C@H](Cc2cccc(-c3ccc(OCc4ccccc4)cc3)c2)N(C)C(=O)[C@H](Cc2ccccc2)NC(=O)[C@H](C(C)C)N(C)C(=O)[C@@H]([C@@H](C)CC)OC(=O)[C@H](C(C)(C)O)N(C)C(=O)[C@H](CC(C)C)NC(=O)[C@H](C(C)C)N(C)C1=O [Compound 13] (cyclo(F[X19]PI[NMeV]L[NMeVal(β-OH)][Hmp(2R,3S)][NMeV]))
- MIC ([1]; ATCC10231, RPMI plus 0.002% Tween-80): 0.5 µg/mL
- MIC ([2]; ATCC22019, RPMI plus 0.002% Tween-80): > 64 µg/mL
- MIC ([2]; ATCC22019, Without Tween-80): > 64 µg/mL
- minimal effective concentration ([3]; Aspergillus fumigatus, 48 h, read-out: MEC, RPMI plus 0.002% Tween-80): > 64 µg/mL
- minimal effective concentration ([3]; Aspergillus fumigatus, 48 h, read-out: MEC, Without Tween-80): > 64 µg/mL
- MIC ([3]; Without Tween-80, 48 hr): >64/>64 μg/mL
- MIC (A. flavus MMX 5948; [10]): > 64 µg/mL
- MEC [4, 11]: 2 µg/mL
- MIC [4, 11]: 8 µg/mL
- MIC ([5]; ATCC13073, 48 h, RPMI plus 0.002% Tween-80): > 64 µg/mL
- minimal effective concentration ([5]; ATCC13073, 48 h, read-out: MEC, RPMI plus 0.002% Tween-80): 1 µg/mL

Structure (SMILES): CC[C@H](C)[C@@H]1NC(=O)[C@@H]2CCCN2C(=O)[C@H](Cc2cccc(-c3cccc4c3cnn4C)c2)N(C)C(=O)[C@H](Cc2ccccc2)NC(=O)[C@H](C(C)C)N(C)C(=O)[C@@H]([C@@H](C)CC)OC(=O)[C@H](C(C)(C)O)N(C)C(=O)[C@H](CC(C)C)NC(=O)[C@H](C(C)C)N(C)C1=O [Compound 14] (cyclo(F[X23]PI[NMeV]L[NMeVal(β-OH)][Hmp(2R,3S)][NMeV]))
- MIC ([1]; ATCC10231, RPMI plus 0.002% Tween-80, read-out: MIC): 0.03 µg/mL
- MIC [2, 12]: 0.12 µg/mL
- MIC [2, 13]: 1 µg/mL (≈ 0.812 µM)
- minimal effective concentration [3, 14]: 0.5 µg/mL
- minimal effective concentration [3, 15]: 2 µg/mL
- MIC ([3]; Aspergillus fumigatus, RPMI plus 0.002% Tween-80, 48 hr, read-out: MIC): > 64 µg/mL
- MIC ([3]; Without Tween-80, 48 hr): > 64 µg/mL
- minimal effective concentration (A. flavus MMX 5948; MMX5948, RPMI plus 0.002% Tween-80, 48 hr): > 64 µg/mL
- MIC (A. flavus MMX 5948; MMX5948, RPMI plus 0.002% Tween-80, 48 hr, read-out: MIC): > 64 µg/mL
- minimal effective concentration [6, 11]: 1 µg/mL
- MIC [6, 16]: > 64 µg/mL
- minimal effective concentration ([4]; Aspergillus niger, ATCC16888, RPMI plus 0.002% Tween-80, 48 hr, read-out: MEC): 0.12 µg/mL
- MIC ([4]; Aspergillus niger, ATCC16888, RPMI plus 0.002% Tween-80, 48 hr, read-out: MIC): 0.12 µg/mL
- minimal effective concentration ([5]; ATCC13073, RPMI plus 0.002% Tween-80, 48 hr, read-out: MEC): 0.25 µg/mL
- MIC ([5]; ATCC13073, RPMI plus 0.002% Tween-80, 48 hr, read-out: MIC): > 64 µg/mL
- minimal effective concentration [7, 11]: 1 µg/mL
- MIC [7, 16]: > 64 µg/mL
- MEC (A. fumigatus MMX 5944; [11]): 1 µg/mL
- MIC (A. fumigatus MMX 5944; [11]): 8 µg/mL
- MIC [8, 17]: 0.5 µg/mL

Structure (SMILES): CC[C@H](C)[C@@H]1NC(=O)[C@@H]2CCCN2C(=O)[C@H](Cc2cccc(-c3ccc(N4CCN(C)CC4)cc3)c2)N(C)C(=O)[C@H](Cc2ccccc2)NC(=O)[C@H](C(C)C)N(C)C(=O)[C@@H]([C@@H](C)CC)OC(=O)[C@H](C(C)(C)O)N(C)C(=O)[C@H](CC(C)C)NC(=O)[C@H](C(C)C)N(C)C1=O [Compound 19] (cyclo(F[X2]PI[NMeV]L[NMeVal(β-OH)][Hmp(2R,3S)][NMeV]))
- MIC ([1]; ATCC10231, Without Tween-80, read-out: MIC): 0.5 µg/mL (≈ 0.392 µM)
- MIC [2, 12]: 0.03 µg/mL
- MIC [2, 13]: 1 µg/mL (≈ 0.784 µM)
- MIC ([2]; Without Tween-80): 2 µg/mL (≈ 1.57 µM)
- minimal effective concentration [3, 14]: 0.06 µg/mL
- MIC ([3]; Aspergillus fumigatus, 48 h, RPMI plus 0.002% Tween-80, read-out: MIC): 0.25 µg/mL
- minimal effective concentration [3, 15]: 0.5 µg/mL
- MIC ([3]; Aspergillus fumigatus, 48 h, Without Tween-80, read-out: MIC): 1 µg/mL (≈ 0.784 µM)
- MEC ([3]; Without Tween-80, 48 hr): 1 µg/mL
- MIC ([3]; Without Tween-80, 48 hr): 2 µg/mL (≈ 1.57 µM)
- minimal effective concentration (A. flavus MMX 5948; [10]): 0.008 µg/mL
- MIC (A. flavus MMX 5948; MMX5948, 48 h, RPMI plus 0.002% Tween-80, read-out: MIC): 0.015 µg/mL
- MIC [6, 18]: 0.12 µg/mL
- minimal effective concentration [6, 11]: 0.06 µg/mL
- minimal effective concentration ([4]; Aspergillus niger, ATCC16888, 48 h, RPMI plus 0.002% Tween-80, read-out: MEC): 0.008 µg/mL
- MIC ([4]; Aspergillus niger, ATCC16888, 48 h, RPMI plus 0.002% Tween-80, read-out: MIC): 0.015 µg/mL
- MIC [4, 11]: 0.015 µg/mL
- minimal effective concentration ([5]; ATCC13073, 48 h, RPMI plus 0.002% Tween-80, read-out: MEC): 0.03 µg/mL
- MIC ([5]; ATCC13073, 48 h, RPMI plus 0.002% Tween-80, read-out: MIC): 0.12 µg/mL
- minimal effective concentration ([7]; 48 h, RPMI plus 0.002% Tween-80): 0.06 µg/mL
- MIC [7, 18]: 0.25 µg/mL
- minimal effective concentration (A. fumigatus MMX 5944; Aspergillus fumigatus, MMX5944, 48 h, RPMI plus 0.002% Tween-80): 0.015 µg/mL
- MIC (A. fumigatus MMX 5944; Aspergillus fumigatus, MMX5944, 48 h, RPMI plus 0.002% Tween-80, read-out: MIC): 0.06 µg/mL
- MEC (A. fumigatus MMX 5944; [11]): 0.015 µg/mL
- MIC ([8]; ATCC90112, 72 h, 72 hour, RPMI plus 0.002% Tween-80): 0.06 µg/mL
- MIC [8, 17]: 0.03 µg/mL
- MIC [9]: 0.015 µg/mL
